In patent publication US8986696B2, “Trans-capsular administration of p38 map kinase inhibitors into orthopedic joints” (DePuy Mitek, Inc., priority 2007, dated 2015):
Entries after “also recorded” stand apart in the source; their conditions may differ.

How the values were obtained:
[1] = system: injured cartilage explants, PGE2 synthesis; assay: drop tower design model: PGE2 synthesis; format: cell-based, bovine; conditions: cocktail of cytokines
Excerpt: The device comprises a vertical rail that guides a sliding weight from 0.1 kg to 3 kg directly onto a force transducer which is situated at the bottom of the device. A sphere-shaped 2 mm indenter resting on a specimen is located at the bottom of the vertical rail. The indenter is held by a stop screw. The specimen is rigidly attached to a tissue holder underneath the indenter, to avoid side movements, the specimen is rigidly attached to the tissue holder. In this manner, the force transducer transduces a force indirectly onto the specimen. Adjusting the weight of a mass and height from which the mass drops varies the magnitude of the intended impact. For example, a weight mass (e.g., […]) held by a weight holder can be released from a height of e.g., 36 cm and dropped onto the force transducer. […]
In the first method, bovine or human PBMCs were freshly prepared using Ficoll gradient by Lampire Biological Laboratories, Inc. PBMCs in RPMI w/10% FCS at delivery were spun down at 1500 rpm for twenty minutes and the cell pellet was washed twice with 1×PBS to wash off the residual Ficoll. […] Each conditioned medium was assessed for levels of pro-inflammatory cytokines to ensure their secretion from PBMC. […]
PGE2 was measured with STAT-Prostaglandin E2 EIA ELISA kit (Cayman Biochemicals), as described in Example III above. […]

[2] = system: IL-1β-stimulated NO production, bovine chondrocyte pellets / ARC tissues; assay: chondrocyte pellet culture model: total nitrite/nitrate (NO); format: cell-based; conditions: ARC, 7.5 ng/ml IL-1, five days; JNJ 7706621 at 5 μM
Excerpt: (§1) Calf articular cartilage was obtained from the knee joints of eight to twelve month old animals and was processed within twenty-four hours after sacrifice. After removal of muscle and ligament, the cartilage was kept moist using phosphate buffer solution (PBS) to prevent tissue dehydration, and was aseptically peeled off from subchondral bone with a scalpel, and the cartilage pieces were further minced into smaller pieces (˜0.3-0.5×˜0.2-0.5 cm cubes). […] Chondrocytes were then enzymatically isolated from the tissue by incubation for overnight at 37° C. with gentle agitation in 0.2% collagenase in Dulbecco's modified eagle media (DMEM). After removal of tissue debris by filtration through cell strainer and the residual collagenase by 3× wash in PBS, cells were finally resuspended at a density of 2.5×10^6 cells/ml in chondrocyte medium. A 1 ml aliquot of the cell suspension was dispensed into either a 15 ml Falcon centrifuge tube or a 96 deep-well plate and centrifuged at 2000×g for five minutes. The chondrocyte pellets were incubated at 37° C. in a humidified atmosphere of 5% CO2 for two to three weeks with a medium change every other day.
(§2) As an alternative to using calf articular cartilage, a commercial Alginate Recovered Chondrocytes (ARC) system was also used (Articular Engineering, LLC (Northbrook, Ill.)). Use of the commercial system cut down on labor and time in producing chondrocyte pellet. This system produced cartilaginous tissue in vitro using bovine chondrocytes. The first step consisted of culturing chondrocytes in alginate under conditions optimal for the formation of a cell-associated matrix (CM). The second step allowed these cells with their CM, after recovery, to rapidly form and become integrated into a solid mass of cartilage on a porous insert within two weeks. This tissue is rich in cells surrounded by a cell-associated matrix that is degraded rapidly when the cells are exposed to IL-1. ARC tissues in 3 mm punches at delivery were first dispensed into a 96 deep-well plate, one punch per well, for compound treatment. The subsequent procedures were the same as those used for the chondrocyte pellets.
(§3) Chondrocyte pellets were washed once with 1 ml of Chondrocyte Stimulation Medium and equilibrated in the same medium at room temperature for fifteen to thirty minutes. Compounds were dissolved in H2O, Ethanol or dimethyl sulfoxide (DMSO) (10^−2 M) according to suppliers' instructions and further diluted with Chondrocyte Stimulation Medium to the required concentrations. DMSO concentrations in the culture media should not exceed 1%; this concentration of DMSO has no effect on cartilage proteoglycan metabolism in response to cytokines.
(§4) The pellets were first treated with compounds at desired concentrations at 37° C. for one hour and then incubated for three to five days in the absence or presence of 10 ng/ml of IL-1β. At the end of the incubation, media and pellets were harvested and frozen for further analysis. Pellets were also fixed as needed in 4% (w/v) paraformaldehyde in PBS for histology analysis.
Nitrate/Nitrite levels were measured using the Griess reaction (Green L. C. et al., “Analysis of Nitrate, Nitrite, and [15N]nitrate in Biological Fluids,” Anal. Biochem. 126: 131-138 (1982)) with aNitrate/Nitrite Colorimetric Assay Kit (Cayman Chemicals), the contents of which are incorporated herein by reference. The assay involved a simple two-step process. The first step involved conversion of nitrate in 50 μl of culture medium to nitrite utilizing nitrate reductase in a reaction volume of 100 μl at room temperature for two hours. The second step involved the addition of 50 μl of both Griess Reagent 1 and 2, which converted nitrite into a deep purple azo compound in ten minutes. Photometric measurement of the absorbance at 540 or 550 nm due to this azo chromophore accurately determined nitrite concentration. […]

chondrocytes = format: cell-based
Excerpt: as §1, §2, §3, §4
The LDH activity was determined colorimetrically in an enzymatic test based on the conversion of lactic acid to pyruvate in the presence of chromagenic substrate tetrazolium salt INT that was reduced to formazan.

human cancer cell lines = assay: cell proliferation in culture; format: cell-based; conditions: in 9 cell lines, read-out: inhibits cell proliferation in culture IC50
[3] = system: IL-1β-stimulated GAG release, bovine chondrocyte pellets / ARC tissues; assay: chondrocyte pellet culture model: GAG degradation; format: cell-based; conditions: ARC, 7.5 ng/ml IL-1, five days; JNJ 7706621 at 5 μM
Excerpt: as §1, §2, §3
[…] At the end of the incubation, media and pellets were harvested and frozen for further analysis. Pellets were also fixed as needed in 4% (w/v) paraformaldehyde in PBS for histology analysis.
(§5) Glycosaminoglycan (GAG) levels in the culture media were determined by measuring the amount of polyanionic material reacting with 1,9-dimethylmethylene blue (DME) as detected by absorbance at 525 nm, using shark chondroitin sulfate as a standard. The DME blue dye-binding solution was prepared by dissolving 16 mg of DME blue in a solution containing 0.304% glycine, 0.23% sodium chloride (NaCl), 9.5 mM hydrochloric acid (HCl), pH=3.0 with absorbance at 525 equal to 0.31. Proteoglycans and proteoglycan metabolites in chondrocyte pellet were released by digesting the pellet with 125 μg/ml of papain in 0.1 M PBS, pH 6.0, 5 mM cysteine, 5 mM ethylene-diamine-tetra-acetic acid disodium salt (Na2EDTA) at 50° C. for overnight. Results are reported as either micrograms of GAG per milliliter or percent of total GAG released into culture medium.

[4] = system: human tumor xenograft models; assay: human tumor xenograft models; conditions: in vivo
[5] = system: IL-1β-stimulated PGE2 synthesis, bovine chondrocyte pellets / ARC tissues; assay: chondrocyte pellet culture model: PGE2; format: cell-based
Excerpt: as §1, §2, §3, §4
(§6) Prostaglandin E2 (PGE2) was measured with a STAT-Prostaglandin E2 EIA ELISA kit (Cayman Biochemicals). This assay is based on the competition between PGE2 from 50 μl samples and a PGE2-alkaline phosphatase conjugate for a limited amount of PGE2 monoclonal antibody in a reaction volume of 150 μl at room temperature for one hour. The antibody-PGE2 complex bound to a goat polyclonal anti-mouse IgG that had been previously attached to the well. After washing to remove any unbound reagents, para-nitrophenyl phosphate (pNPP) was added to the well. The product of this enzymatic reaction absorbs strongly at 412 nm. Because of the large range in response to IL-1β and other cytokines, PGE2 values were converted to log scale prior to doing t-tests.

[6] = system: cytokine-stimulated GAG release, human ARC tissues; assay: human ARC tissues: GAG degradation; format: cell-based
Protocol: as §5
(§7) ® infliximab is a monoclonal antibody against human TNFα. To test whether […]® could modulate cytokine-stimulated responses in chondrocytes, human chondrocyte pellets were first tested for an optimal concentration for cytokine stimulation. Human ARC (i.e., ARCs generated using human chondrocytes) tissues were treated with various concentrations of either TNF or IL-1 for four and five days. The culture media was collected for measurement of GAG content as described above. Other assays were performed as described above. Cytokine dosage at 5 ng/ml and treatment for five days gave a reasonable treatment window, yet was not too challenging for compound efficacy (FIG. 4).
(§8) Human ARC tissues were then treated with various concentrations of […]® in the presence or absence of either 10 ng/ml of TNFα or 5 ng/ml of IL-1β for four or five days.
(§9) The efficacy of a monoclonal antibody (mAb) against human IL-6 in inhibition of proteoglycan degradation, NO production and PGE2 synthesis on human ARC tissues stimulated with IL-6 was also tested. Human ARC tissue were treated with 12.5, 25 and 250 ng/ml of IL-6 mAb diluted into chondrocyte stimulation medium. […]

[7] = system: cytokine-stimulated PGE2 synthesis, human ARC tissues; assay: human ARC tissues: PGE2 synthesis; format: cell-based; conditions: for PGE2 Inhibition: TNFα stimulated responses
Protocol: as §6, §7, §8, §9

[8] = system: cytokine-stimulated NO production, human ARC tissues; assay: human ARC tissues: NO production; format: cell-based
Protocol: Nitrate/Nitrite levels were measured using the Griess reaction (Green L. C. et al., “Analysis of Nitrate, Nitrite, and [15N]nitrate in Biological Fluids,” Anal. Biochem. 126: 131-138 (1982)) with aNitrate/Nitrite Colorimetric Assay Kit (Cayman Chemicals), the contents of which are incorporated herein by reference. The assay involved a simple two-step process. The first step involved conversion of nitrate in 50 μl of culture medium to nitrite utilizing nitrate reductase in a reaction volume of 100 μl at room temperature for two hours. The second step involved the addition of 50 μl of both Griess Reagent 1 and 2, which converted nitrite into a deep purple azo compound in ten minutes. Photometric measurement of the absorbance at 540 or 550 nm due to this azo chromophore accurately determined nitrite concentration. This assay kit cannot be used for RPMI (Roswell Park Memorial Institute) derived tissue culture medium due to interference with the colorimetric reaction.
® infliximab is a monoclonal antibody against human TNFα. To test whether […]® could modulate cytokine-stimulated responses in chondrocytes, human chondrocyte pellets were first tested for an optimal concentration for cytokine stimulation. Human ARC (i.e., ARCs generated using human chondrocytes) tissues were treated with various concentrations of either TNF or IL-1 for four and five days. […]

[9] = at 1 ng/ml, TNFα stimulated responses

CNC(=O)[C@H](Cc1ccccc1)NC(=O)[C@H](CC(C)C)[C@H](CSc1cccs1)C(=O)NO [Batimastat]
PGE2 synthesis, inhibition [1]: did not inhibit; also recorded: No effect

Nc1nc(Nc2ccc(S(N)(=O)=O)cc2)nn1C(=O)c1c(F)cccc1F [JNJ 7706621, 4-[5-Amino-1-(2,6-difluoro-benzoyl)-1H-[1,2,4]triazol-3-ylamino]-benzenesulfonamide]
NO production [2]: completely blocked | cytotoxicity to chondrocytes (LDH, words) (chondrocytes): little toxicity | IC50 (human cancer cell lines): 337 ± 123 nM | GAG Release [3]: completely blocked | antitumor activity in human tumor xenograft models [4]: single agent antitumor activity | PGE2 synthesis ([5]; ARC, 7.5 ng/ml IL-1, five days, JNJ 7706621 at 5 μM): little effect | PGE2 Inhibition ([5]; Pellet Assay): No effect

REMICADE®: monoclonal antibody against human TNFα
IL-1β stimulated responses (PGE2, NO, GAG; words) ([6]; 5 ng/ml IL-1β): little effect | TNFα-induced GAG release ([6]; 10 ng/ml TNFα): strongly inhibited | GAG Release, inhibition [6, 9]: 100% at 1 ng/ml | TNFα-induced PGE2 synthesis ([7]; 10 ng/ml TNFα): strongly inhibited | PGE2 Inhibition ([7]; at 1 ng/ml): 50% at 1 ng/ml | PGE2 Inhibition ([7]; at 10 ng/ml): 100% at | TNFα-induced NO production ([8]; 10 ng/ml TNFα): strongly inhibited | NO Inhibition [8, 9]: 100% at
